Laboratory results as given in PubChem BioAssay (NCI).
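Tested at 5 concentrations; 48 h exposure; 96-well plates; endpoints linearly interpolated, else capped at highest concentration. Definition used: TGI = concentration required for complete inhibition of growth.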

What follows are compounds tested on 786-0 renal (assay: DTP human tumour cell line panel, 48 h).
In the case of `O=C(Cc1nc2ccccc2o1)C(=O)Nc1ccccc1C(F)(F)F`, the TGI is reported as greater than 100 µM. For `CN(C)CCNc1ccc2nnn3c4ccccc4c(=O)c1c23`, the TGI was 16.5 µM. In the case of `COC1=CC(=Nc2c(Cl)cc(Cl)cc2OC(=O)c2ccc([N+](=O)[O-])cc2)C=C(OC)C1=O`, the TGI is reported as 28 µM. Compound `CCOC(=O)C(C)c1c(C(=O)c2ccc(C)nc2)c2ccccc2n1C` (configuration not stated) has a TGI greater than 100 µM.

What follows are compounds tested on A498 renal (assay: DTP human tumour cell line panel, 48 h).
In the case of `O=C(Cc1nc2ccccc2o1)C(=O)Nc1ccccc1C(F)(F)F`, the TGI is reported as greater than 100 µM. Compound `CN(C)CCNc1ccc2nnn3c4ccccc4c(=O)c1c23` has a TGI of 8.96 µM.

What follows are compounds tested on A549 NSCLC (assay: DTP human tumour cell line panel, 48 h).
Compound `O=C(Cc1nc2ccccc2o1)C(=O)Nc1ccccc1C(F)(F)F` has a TGI greater than 100 µM. In the case of `CN(C)CCNc1ccc2nnn3c4ccccc4c(=O)c1c23`, the TGI is reported as 6.56 µM. Work on `COC1=CC(=Nc2c(Cl)cc(Cl)cc2OC(=O)c2ccc([N+](=O)[O-])cc2)C=C(OC)C1=O` yielded a TGI of 23.4 µM. `CCOC(=O)C(C)c1c(C(=O)c2ccc(C)nc2)c2ccccc2n1C` (configuration not stated) gave a TGI greater than 100 µM.

What follows are compounds tested on ACHN renal (assay: DTP human tumour cell line panel, 48 h).
With `O=C(Cc1nc2ccccc2o1)C(=O)Nc1ccccc1C(F)(F)F` the TGI was greater than 100 µM. In the case of `CN(C)CCNc1ccc2nnn3c4ccccc4c(=O)c1c23`, the TGI is reported as 7.01 µM. `COC1=CC(=Nc2c(Cl)cc(Cl)cc2OC(=O)c2ccc([N+](=O)[O-])cc2)C=C(OC)C1=O` was tested, and the TGI was 22.6 µM. `CCOC(=O)C(C)c1c(C(=O)c2ccc(C)nc2)c2ccccc2n1C` (configuration not stated) gave a TGI greater than 100 µM.

The compounds below were run on BT-549 breast (assay: DTP human tumour cell line panel, 48 h).
For `CN(C)CCNc1ccc2nnn3c4ccccc4c(=O)c1c23`, the TGI was 32.3 µM.

Each compound was assayed on CAKI-1 renal (assay: DTP human tumour cell line panel, 48 h).
`O=C(Cc1nc2ccccc2o1)C(=O)Nc1ccccc1C(F)(F)F` was tested, and the TGI was greater than 100 µM. `CN(C)CCNc1ccc2nnn3c4ccccc4c(=O)c1c23` gave a TGI of 18.5 µM. Compound `COC1=CC(=Nc2c(Cl)cc(Cl)cc2OC(=O)c2ccc([N+](=O)[O-])cc2)C=C(OC)C1=O` has a TGI of 31.7 µM. For `CCOC(=O)C(C)c1c(C(=O)c2ccc(C)nc2)c2ccccc2n1C` (configuration not stated), the TGI was greater than 100 µM.

What follows are compounds tested on CCRF-CEM leukemia (assay: DTP human tumour cell line panel, 48 h).
For `O=C(Cc1nc2ccccc2o1)C(=O)Nc1ccccc1C(F)(F)F`, the TGI was greater than 100 µM. `CN(C)CCNc1ccc2nnn3c4ccccc4c(=O)c1c23` was tested, and the TGI was 20.6 µM. In the case of `COC1=CC(=Nc2c(Cl)cc(Cl)cc2OC(=O)c2ccc([N+](=O)[O-])cc2)C=C(OC)C1=O`, the TGI is reported as greater than 25.9 µM. In the case of `CCOC(=O)C(C)c1c(C(=O)c2ccc(C)nc2)c2ccccc2n1C` (configuration not stated), the TGI is reported as greater than 100 µM.

Each compound was assayed on COLO 205 colon (assay: DTP human tumour cell line panel, 48 h).
In the case of `O=C(Cc1nc2ccccc2o1)C(=O)Nc1ccccc1C(F)(F)F`, the TGI is reported as greater than 100 µM. Compound `CN(C)CCNc1ccc2nnn3c4ccccc4c(=O)c1c23` has a TGI of 5.9 µM. `COC1=CC(=Nc2c(Cl)cc(Cl)cc2OC(=O)c2ccc([N+](=O)[O-])cc2)C=C(OC)C1=O` showed a TGI of 33.6 µM. With `CCOC(=O)C(C)c1c(C(=O)c2ccc(C)nc2)c2ccccc2n1C` (configuration not stated) the TGI was greater than 100 µM.

What follows are compounds tested on DLD-1 colon (assay: DTP human tumour cell line panel, 48 h).
`O=C(Cc1nc2ccccc2o1)C(=O)Nc1ccccc1C(F)(F)F` gave a TGI greater than 100 µM. In the case of `CN(C)CCNc1ccc2nnn3c4ccccc4c(=O)c1c23`, the TGI is reported as 22.9 µM. `COC1=CC(=Nc2c(Cl)cc(Cl)cc2OC(=O)c2ccc([N+](=O)[O-])cc2)C=C(OC)C1=O` gave a TGI of 30 µM. `CCOC(=O)C(C)c1c(C(=O)c2ccc(C)nc2)c2ccccc2n1C` (configuration not stated) was tested, and the TGI was greater than 100 µM.

Each compound was assayed on DMS 114 small cell lung (assay: DTP human tumour cell line panel, 48 h).
For `O=C(Cc1nc2ccccc2o1)C(=O)Nc1ccccc1C(F)(F)F`, the TGI was greater than 100 µM. `CN(C)CCNc1ccc2nnn3c4ccccc4c(=O)c1c23` showed a TGI of 12.7 µM. `COC1=CC(=Nc2c(Cl)cc(Cl)cc2OC(=O)c2ccc([N+](=O)[O-])cc2)C=C(OC)C1=O` was tested, and the TGI was 8.52 µM. With `CCOC(=O)C(C)c1c(C(=O)c2ccc(C)nc2)c2ccccc2n1C` (configuration not stated) the TGI was greater than 100 µM.

Each compound was assayed on DMS 273 small cell lung (assay: DTP human tumour cell line panel, 48 h).
Work on `O=C(Cc1nc2ccccc2o1)C(=O)Nc1ccccc1C(F)(F)F` yielded a TGI greater than 100 µM. In the case of `CN(C)CCNc1ccc2nnn3c4ccccc4c(=O)c1c23`, the TGI is reported as 11.5 µM. `COC1=CC(=Nc2c(Cl)cc(Cl)cc2OC(=O)c2ccc([N+](=O)[O-])cc2)C=C(OC)C1=O` showed a TGI of 30.5 µM. Compound `CCOC(=O)C(C)c1c(C(=O)c2ccc(C)nc2)c2ccccc2n1C` (configuration not stated) has a TGI greater than 100 µM.

What follows are compounds tested on DU-145 prostate (assay: DTP human tumour cell line panel, 48 h).
`CN(C)CCNc1ccc2nnn3c4ccccc4c(=O)c1c23` was tested, and the TGI was 9.68 µM.

What follows are compounds tested on EKVX NSCLC (assay: DTP human tumour cell line panel, 48 h).
`O=C(Cc1nc2ccccc2o1)C(=O)Nc1ccccc1C(F)(F)F` was tested, and the TGI was greater than 100 µM. `CN(C)CCNc1ccc2nnn3c4ccccc4c(=O)c1c23` showed a TGI of 13.4 µM. Work on `COC1=CC(=Nc2c(Cl)cc(Cl)cc2OC(=O)c2ccc([N+](=O)[O-])cc2)C=C(OC)C1=O` yielded a TGI of 29.5 µM. In the case of `CCOC(=O)C(C)c1c(C(=O)c2ccc(C)nc2)c2ccccc2n1C` (configuration not stated), the TGI is reported as greater than 100 µM.

What follows are compounds tested on HCC-2998 colon (assay: DTP human tumour cell line panel, 48 h).
With `O=C(Cc1nc2ccccc2o1)C(=O)Nc1ccccc1C(F)(F)F` the TGI was greater than 100 µM. Compound `CN(C)CCNc1ccc2nnn3c4ccccc4c(=O)c1c23` has a TGI of 13.1 µM. In the case of `COC1=CC(=Nc2c(Cl)cc(Cl)cc2OC(=O)c2ccc([N+](=O)[O-])cc2)C=C(OC)C1=O`, the TGI is reported as 32.4 µM. With `CCOC(=O)C(C)c1c(C(=O)c2ccc(C)nc2)c2ccccc2n1C` (configuration not stated) the TGI was greater than 100 µM.

The compounds below were run on HCT-116 colon (assay: DTP human tumour cell line panel, 48 h).
Work on `O=C(Cc1nc2ccccc2o1)C(=O)Nc1ccccc1C(F)(F)F` yielded a TGI greater than 100 µM. For `CN(C)CCNc1ccc2nnn3c4ccccc4c(=O)c1c23`, the TGI was 13.7 µM. `COC1=CC(=Nc2c(Cl)cc(Cl)cc2OC(=O)c2ccc([N+](=O)[O-])cc2)C=C(OC)C1=O` showed a TGI of 18.9 µM.

Each compound was assayed on HCT-15 colon (assay: DTP human tumour cell line panel, 48 h).
With `O=C(Cc1nc2ccccc2o1)C(=O)Nc1ccccc1C(F)(F)F` the TGI was greater than 100 µM. In the case of `CN(C)CCNc1ccc2nnn3c4ccccc4c(=O)c1c23`, the TGI is reported as 13 µM. `COC1=CC(=Nc2c(Cl)cc(Cl)cc2OC(=O)c2ccc([N+](=O)[O-])cc2)C=C(OC)C1=O` showed a TGI of 20.8 µM. `CCOC(=O)C(C)c1c(C(=O)c2ccc(C)nc2)c2ccccc2n1C` (configuration not stated) showed a TGI greater than 100 µM.

What follows are compounds tested on HL-60(TB) leukemia (assay: DTP human tumour cell line panel, 48 h).
`O=C(Cc1nc2ccccc2o1)C(=O)Nc1ccccc1C(F)(F)F` was tested, and the TGI was greater than 100 µM. Compound `CN(C)CCNc1ccc2nnn3c4ccccc4c(=O)c1c23` has a TGI of 15.7 µM.
